Measurements reported in PMC6532911, “Oryza sativa Brittle Culm 1-like 6 modulates β-glucan levels in the endosperm cell wall” (PLoS ONE, 2019).

Target: T1, CBM-GST (CBM of OsBC1L6) (Oryza sativa, UniProt Q6Z4G8)
T1 construct: gene BC1L6; wheat germ cell-free expression; 48 kDa by SDS-PAGE
T1 sequence (Q6Z4G8 31-191): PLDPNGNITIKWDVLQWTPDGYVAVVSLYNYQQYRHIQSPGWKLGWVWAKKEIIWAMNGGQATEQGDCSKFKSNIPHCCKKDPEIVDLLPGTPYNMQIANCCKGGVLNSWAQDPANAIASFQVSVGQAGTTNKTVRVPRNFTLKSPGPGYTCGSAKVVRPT
Assay: surface plasmon resonance (Biacore T200)
Assay type: binding
Conditions: CBM-GST captured by anti-GST on CM5 chip; HBS-EP pH 7.4, 25°C

SMILES: OC[C@H]1O[C@@H](O[C@H]2[C@H](O)[C@@H](O)[C@H](O[C@H]3[C@H](O)[C@@H](O)[C@H](O[C@H]4[C@H](O)[C@@H](O)[C@H](O[C@H]5[C@H](O)[C@@H](O)[C@H](O[C@H]6[C@H](O)[C@@H](O)C(O)O[C@@H]6CO)O[C@@H]5CO)O[C@@H]4CO)O[C@@H]3CO)O[C@@H]2CO)[C@H](O)[C@@H](O)[C@@H]1O (some centres unmarked) [GGGGGG, cellohexaose]
- Kd: 852 µM

SMILES: OC1OC[C@@H](O[C@@H]2OC[C@@H](O[C@@H]3OC[C@@H](O[C@@H]4OC[C@@H](O[C@@H]5OC[C@@H](O[C@@H]6OC[C@@H](O)[C@H](O)[C@H]6O)[C@H](O)[C@H]5O)[C@H](O)[C@H]4O)[C@H](O)[C@H]3O)[C@H](O)[C@H]2O)[C@H](O)[C@H]1O (some centres unmarked) [XXXXXX, xylohexaose]
- Kd: 760 µM
